Marks after values point to notes of the source that are not given here. *1 amine or outer side, *2 acyl side, *3 side chain or, on linkers, in order; H or OH if unused. Where a SMILES comes first, the peptide text is derived from it. Side-chain parts run from the residue outwards. [ ]: non-standard residue; d: D form. The star is where a group is joined. C18 diacid = O=C(O)CCCCCCCCCCCCCCCCC(=O)*; C16 diacid = O=C(O)CCCCCCCCCCCCCCC(=O)*; γGlu = O=C(O)[C@H](CCC(=O)[*:2])N[*:1]; εLys = N[C@@H](CCCCN[*:1])C(=O)[*:2]; AEEA = NCCOCCOCC(=O)O; Aib = CC(C)(N)C(=O)O; Sar = CNCC(=O)O

A short description of data set [1]: in vivo. Details: species or system Göttingen minipigs. Particulars: female, Göttingen, minipig, iv. The protocol: The purpose of this method is to determine the half-life in vivo of the derivatives of the present invention after i.v. administration to minipigs, i.e. the prolongation of their time in the body and thereby their time of action. This is done in a pharmacokinetic (PK) study, where the terminal half-life of the derivative in question is determined. By terminal half-life is generally meant the period of time it takes to halve a certain plasma concentration, measured after the initial distribution phase.
Female Göttingen minipigs were obtained from Ellegaard Göttingen Minipigs (Dalmose, Denmark) approximately 7-14 months of age and weighing from approximately 16-35 kg were used in the studies. The minipigs were housed individually and fed restrictedly once daily with SDS minipig diet (Special Diets Services, Essex, UK).
After at 3 weeks of acclimatisation two permanent central venous catheters were implanted in vena cava caudalis in each animal. The animals were allowed 1 week recovery after the surgery, and were then used for repeated pharmacokinetic studies with a suitable wash-out period between successive derivative dosing.
The animals were fasted for approximately 18 hours before dosing and from 0 to 4 hours after dosing but had ad libitum access to water during the whole period.
The sodium salts of compounds of Examples 1 were prepared using method SX_A under General Methods for preparation of the compounds of the invention. The resulting sodium salts were dissolved to a concentration of 50-300 nmol/mL in a buffer containing 0.007% polysorbate 20, 50 mM sodium phosphate, 70 mM sodium chloride, pH 7.4. Intravenous injections (the volume corresponding to usually 1-20 nmol/kg, for example 0.02-0.05 mL/kg) of the compounds were given through one catheter, and blood was sampled at predefined time points for up to 21 days post dosing (preferably through the other catheter). Blood samples (for example 0.8 mL) were collected in 8 mM EDTA buffer and then centrifuged at 4° C. and 1942 g for 10 minutes.
Plasma was pipetted into Micronic tubes on dry ice and kept at −20° C. until analysed for plasma concentration of the compounds using ELISA, or a similar antibody-based assay, or LCMS. Individual plasma concentration-time profiles were analysed by a non-compartmental model in Phoenix WinNonLin ver. 6.4. (Pharsight Inc., Mountain View, CA, USA), and the resulting terminal half-lives (harmonic mean) determined.
The terminal half-lives and/or the observed terminal half-lives, measured as described herein in General Methods for Measuring Terminal Half-Life in Minipigs are shown in Table 7. […] This provides evidence that conversion of prodrug to parent compound is occurring in vivo. The terminal half-life of the prodrug may be faster or slower than the corresponding parent compound due to the contribution of conversion on the terminal half-life of the prodrug.

A short description of data set [2]: physchem. Type of data set: physicochemical. To be noted: buffer, pH 7.4. On the procedure:
The assay was performed to investigate the conversion half-life of prodrug to drug of the prodrugs of the invention. The conversion half-life was investigated in vitro at pH 7.4 upon incubation at 37° C.
Test compounds were dissolved to a concentration of 100 μM in phosphate-buffered saline (140 mM NaCl, 2.07 mM KCl, 8.05 mM Na2HPO4, 1.96 mM KH2PO4, pH 7.4). Solution pH was measured after dissolution and adjusted to pH 7.4 with aqueous NaOH if necessary. The solution was filtered through a 0.22 μm syringe filter, then incubated in a water bath at 37° C. Aliquots were withdrawn at defined timepoints, e.g. every 24-72 hours, for LCMS analysis.
LCMS analysis was performed using the procedure defined in LCMS_A above. The AUC of the prodrug, active drug, and DKP were determined using UV detection at 214 nm, and the ratio of prodrug AUC over total AUC of prodrug plus active drug plus DKP was calculated. The negative natural logarithm of this ratio was plotted over time, and a linear regression of this relationship was then performed.
The prodrug to drug conversion half-life of the compounds of the invention was measured as described in General Methods for Measuring Conversion Half-life.

Data set [3] can be described thus: in vivo. Details: species or system beagle dogs. Particulars: dog, po, 300 mg; for Tmax / half-life: male, beagle. The protocol: The purpose of this method is to determine the terminal half-life and plasma exposure in vivo of the compounds of the present invention after p.o. administration to beagle dogs, i.e. the terminal half-life and concentration of test substance that reaches circulation with time. This is done in a pharmacokinetic (PK) study, where these parameters of the compound in question are determined. By terminal half-life is generally meant the period of time it takes to halve a certain plasma concentration, measured after the initial distribution phase.
Tablet compositions comprising the test compounds obtained from Example 1 and SNAC (sodium N-(8-(2-hydroxybenzoyl)amino)caprylate) were prepared according to methods known to the person skilled in the art by mixing test substance with roller compacted SNAC and magnesium stearate as e.g. described in WO 2019/149880. Each tablet was comprised of 7.7 mg magnesium stearate, 2-4 mg of each compound tested, and 300 mg SNAC.
Male beagle dogs, 1-7 years of age and weighing 9-17 kg during the study period, were included in the study. The dogs were dosed in a fasting state. The dogs were group housed in pens (12 hours light: 12 hours dark), and fed individually and restrictedly once daily with Royal Canin Medium Adult dog food (Royal Canin Products, China Branch, or Brogaarden A/S, Denmark). The dogs were used for repeated PK studies with a suitable wash-out period between successive dosing. An appropriate acclimatisation period was given prior to initiation of the first PK study. All handling, dosing, and blood sampling of the animals were performed by trained and skilled staff. Before the studies, the dogs were fasted overnight and from 0 to 4 hours after dosing. The dogs were restricted to water 1 hour before dosing until 4 hours after dosing, but otherwise had adlibitum access to water during the whole period.
The compositions were administered by a single oral dosing to the dogs in groups of 6-8 dogs. The tablets were administered in the following manner: 10 min prior to tablet administration, the dogs may be dosed subcutaneously with approximately 3 nmol/kg of SEQ ID NO.: 7 ([…]), then tablets were placed in the back of the mouth of the dog to prevent chewing. The mouth was then closed, and 10 mL of tap water was given by syringe or gavage to facilitate swallowing of the tablet.
One blood sample was drawn before dosing, and additional samples were drawn at predefined time points after dosing, such as for up to 600 hours, to adequately cover the full plasma concentration-time absorption profile of the test substance. For each blood sample time point, approximately 0.8 mL of whole blood was collected in a 1.5 mL EDTA-coated tube, which was gently turned to mix the sample with EDTA. Blood samples were collected in EDTA buffer (8 mM) and then centrifuged at 4° C. and 2000 g for 10 minutes. Plasma was pipetted into Micronic tubes on dry ice, and kept at −20° C. or lower until analysis. Blood samples were taken as appropriate, for example from a venflon in the cephalic vein in the front leg for the first 2 hours and then with syringe from the jugular vein for the rest of the time points. The first few drops were allowed to drain from the venflon to avoid heparin saline from the venflon in the sample. All blood samples were collected into test tubes containing EDTA for stabilisation and kept on ice until centrifugation. Plasma was separated from whole blood by centrifugation and the plasma was stored at −20° C. or lower until analysis.
The plasma was analysed for test substance using LC-MS (Liquid Chromatography-Mass Spectrometry) as known to the person skilled in the art. […]

Turning to “H-[dK]([AEEA-AEEA-γGlu-C16 diacid])[Sar]Y[Aib]EGTFTSDYSILLEEQAAREFIEWLLAGGPSK([AEEA-AEEA-γGlu-C16 diacid])GAPPPS-OH [Compound 10]”, the half-life – broadly, the time in which the quantity being followed falls by half – in data set [1] was 118 h. This compound also had a half-life at 100 μM in data set [2] of 195 h.
On to “H-K([γGlu-C16 diacid])[Sar]Y[Aib]EGTFTSDYSILLEEQAAREFIEWLLAGGPSK([AEEA-AEEA-γGlu-C16 diacid])GAPPPS-OH [Compound 3]”, for which the half-life in data set [1] is 119 h. This compound had a half-life at 100 μM in data set [2] of 111 h. Moreover, in data set [3], the AUC/Dose turned out to be 38.5 kg·h/L, the Cmax/Dose worked out at 0.32 kg/L, the time to peak (Tmax) (usually the time at which the peak concentration occurs) was 7 h and the half-life was 139 h.
Regarding `CC[C@H](C)[C@H](NC(=O)[C@H](Cc1ccccc1)NC(=O)[C@H](CCC(=O)O)NC(=O)[C@H](CCCNC(=N)N)NC(=O)[C@H](C)NC(=O)[C@H](C)NC(=O)[C@H](CCC(N)=O)NC(=O)[C@H](CCC(=O)O)NC(=O)[C@H](CCC(=O)O)NC(=O)[C@H](CC(C)C)NC(=O)[C@H](CC(C)C)NC(=O)[C@@H](NC(=O)[C@H](CO)NC(=O)[C@H](Cc1ccc(O)cc1)NC(=O)[C@H](CC(=O)O)NC(=O)[C@H](CO)NC(=O)[C@@H](NC(=O)[C@H](Cc1ccccc1)NC(=O)[C@@H](NC(=O)CNC(=O)[C@H](CCC(=O)O)NC(=O)C(C)(C)NC(=O)[C@@H](N)Cc1ccc(O)cc1)[C@@H](C)O)[C@@H](C)O)[C@@H](C)CC)C(=O)N[C@@H](CCC(=O)O)C(=O)N[C@@H](Cc1c[nH]c2ccccc12)C(=O)N[C@@H](CC(C)C)C(=O)N[C@@H](CC(C)C)C(=O)N[C@@H](C)C(=O)NCC(=O)NCC(=O)N1CCC[C@H]1C(=O)N[C@@H](CO)C(=O)N[C@@H](CCCCNC(=O)COCCOCCNC(=O)COCCOCCNC(=O)CC[C@H](NC(=O)CCCCCCCCCCCCCCC(=O)O)C(=O)O)C(=O)NCC(=O)N[C@@H](C)C(=O)N1CCC[C@H]1C(=O)N1CCC[C@H]1C(=O)N1CCC[C@H]1C(=O)N[C@@H](CO)C(=O)O` [Parent compound 1] (H-Y[Aib]EGTFTSDYSILLEEQAAREFIEWLLAGGPSK([AEEA-AEEA-γGlu-C16 diacid])GAPPPS-OH), the half-life in data set [1] was 121 h. For the same compound, in data set [3], the AUC/Dose turned out to be 60.7 kg·h/L, the Cmax/Dose worked out at 0.67 kg/L, the time to peak (Tmax) was determined as 1.5 h and the half-life was 104 h.
In turn, “H-K([Gly-γGlu-C16 diacid])[Sar]Y[Aib]EGTFTSDYSILLEEQAAREFIEWLLAGGPSK([AEEA-AEEA-γGlu-C16 diacid])GAPPPS-OH [Compound 9]” gave a half-life in data set [1] of 102 h. Moreover, in data set [2], the half-life at 100 μM was 132 h.
Take “H-[dK]([γGlu-C16 diacid])[Sar]Y[Aib]EGTFTSDYSILLEEQAAREFIEWLLAGGPSK([AEEA-AEEA-γGlu-C16 diacid])GAPPPS-OH [Compound 1]”: the half-life in data set [1] was 118 h. This compound also showed a half-life at 100 μM in data set [2] of 244 h. Moreover, in data set [3], the AUC/Dose came out at 41.2 kg·h/L, the Cmax/Dose is listed as 0.66 kg/L, the time to peak (Tmax) stood at 4 h and the half-life was 146 h.
In turn, “H-K([γGlu-C16 diacid])VY[Aib]EGTFTSDYSILLEEQAAREFIEWLLAGGPSK([AEEA-AEEA-γGlu-C16 diacid])GAPPPS-OH [Non-converting compound 1]” gave a half-life in data set [1] of 170 h. In data set [3], the AUC/Dose was 20.1 kg·h/L, the Cmax/Dose is recorded as 0.21 kg/L, the time to peak (Tmax) is 1.5 h and the half-life is 137 h.
The compound `CC[C@H](C)[C@H](NC(=O)[C@H](Cc1ccccc1)NC(=O)[C@H](CCC(=O)O)NC(=O)[C@H](CCCNC(=N)N)NC(=O)[C@H](C)NC(=O)[C@H](C)NC(=O)[C@H](CCC(N)=O)NC(=O)[C@H](CCCCNC(=O)[C@@H](N)CCCCNC(=O)[C@@H](N)CCCCNC(=O)CC[C@H](NC(=O)CCCCCCCCCCCCCCCCC(=O)O)C(=O)O)NC(=O)[C@H](CCC(=O)O)NC(=O)[C@H](CC(C)C)NC(=O)[C@H](CC(C)C)NC(=O)[C@@H](NC(=O)[C@H](CO)NC(=O)[C@H](Cc1ccc(O)cc1)NC(=O)[C@H](CC(=O)O)NC(=O)[C@H](CO)NC(=O)[C@@H](NC(=O)[C@H](Cc1ccccc1)NC(=O)[C@@H](NC(=O)CNC(=O)[C@H](CCC(=O)O)NC(=O)C(C)(C)NC(=O)[C@@H](N)Cc1ccc(O)cc1)[C@@H](C)O)[C@@H](C)O)[C@@H](C)CC)C(=O)N[C@@H](CCC(=O)O)C(=O)N[C@@H](Cc1c[nH]c2ccccc12)C(=O)N[C@@H](CC(C)C)C(=O)N[C@@H](CC(C)C)C(=O)N[C@@H](C)C(=O)NCC(=O)NCC(=O)N1CCC[C@H]1C(=O)N[C@@H](CO)C(=O)N[C@@H](CO)C(=O)NCC(=O)N[C@@H](C)C(=O)N1CCC[C@H]1C(=O)N1CCC[C@H]1C(=O)N1CCC[C@H]1C(=O)N[C@@H](CO)C(=O)O` [Parent compound 4] (H-Y[Aib]EGTFTSDYSILLEK([εLys-εLys-γGlu-C18 diacid])QAAREFIEWLLAGGPSSGAPPPS-OH) gave a half-life in data set [1] of 106 h. In data set [3], the AUC/Dose is listed as 17.9* kg*h/L and the Cmax/Dose was 0.35* kg/L.

For the origin of these results see patent US11840560B2, “Prodrugs and uses thereof” (Novo Nordisk A/S, priority 2022, dated 2023).
